Like-named read-outs stand apart in the source and are kept apart here. One block for each compound: values may come before it.
Assays:
[1] = tested on: lymphocyte layer of cells from whole blood; assay: Cell tracing by dye dilution, flow cytometry (Compound 2 vs CELLTRACE Far Red DDAO); format: cell-based; settings: 5 μM, 20 min 37° C.; stimulated 5 days with DYNABEADS Human T-Activator CD3/CD28; 633/635 nm excitation, 660/20 emission filter
Procedure: The whole blood sample (20 mL) was diluted in 20 mL of PBS and then centrifuged for 30 min after addition of FICOLL-PAQUE Plus (15 mL) (GE Healthcare). The lymphocyte layer of cells was suspended in 25 mL of PBS buffer and centrifuged for 5 min. The cells were counted on the COUNTESS Automated Counter and the concentration was adjusted to 10^6 cells/mL. 10 mL of cells was incubated with either Compound 2 (FIG. 1A) or CELLTRACE Far Red DDAO (FIG. 1B) (Thermo Fisher Scientific) (5 μM) for 20 min in a 37° C. water bath. After incubation the cells were treated with 40 mL of OPTMIZER T Cell Expansion (Thermo Fisher Scientific) for 5 min. The treatment with OPTMIZER T Cell Expansion was repeated one more time after centrifugation. Next, the stained cells were stimulated with 50 μL DYNABEADS Human T-Activator CD3/CD28 (Thermo Fisher Scientific) per 1 mL of cells for 5 days. The stimulated cells were then analyzed using an ATTUNE flow cytometer (Thermo Fisher Scientific) with 633/635 nm excitation and a 660/20 bandpass emission filter.

PBMCs [2] = assay: Cytotoxicity test in PBMCs, viability dye (SYTOX) and flow cytometry; settings: after proliferation for 3 to 5 days
Text: (§1) To test for cytotoxicity, PBMCs were stained with CELLTRACE (Thermo Fisher Scientific) CFSE (positive control) or Compound 2. The cells were split into samples for culturing and one sample was stimulated with anti-hCD3 (clone UCHT1) and supplemented with recombinant hIL2. Dye loading was observed by fluorescent microscopy. After proliferation for 3 to 5 days, the samples were stained with the appropriate viability dye (e.g., SYTOX dye) and analyzed by flow cytometry (see Table 3).

A549 cells = assay: CYQUANT Direct cytotoxicity assay; settings: 10 μM, 30 mins at 37° C.; assayed on days 1, 2 and 3
Procedure: A549 cells plated in a 96 well plate were labeled with [sequence] […] The LCIS was then aspirated from cells and complete media added for an overnight incubation. The following day (Day 1) cells were assayed for cytotoxicity using the CYQUANT Direct assay (Thermo Fisher Scientific).

PBMCs [3] = tested on: PBMCs
Text: as §1

Compound: CN1CCCc2cc3c(cc21)C(C)(C)c1cc2c(cc1=C3c1ccccc1C(=O)[O-])CCC[N+]=2CCCCCC(=O)ON1C(=O)CCC1=O [Compound 2, 2-(1-(6-((2,5-dioxopyrrolidin-1-yl)oxy)-6-oxohexyl)-11-metheyliumyl-13,13-dimethyl-1,2,3,4,8,9,10,13-octahydro-1114-benzo[1,2-g:5,4-g′]diquinolin-6-yl)benzoate]
generations of cells traced [1]: seven
% Live Cells (PBMCs [2]; 2 μM dye): 53%
% Live Cells (PBMCs [2]; 5 μM dye): 55%
% Live Cells (PBMCs [2]; 10 μM dye): 64%
cytotoxicity compared to DMSO alone (A549 cells): no cytotoxicity

% Live Cells (PBMCs [3]): 52%
Compound: Carboxyfluorescein diacetate succinimidyl ester [CELLTRACE CFSE]
